Molecules are shown by their SMILES.

Chain of full-length human PIKFYVE (N-terminal GST-fusion) (Q9Y2I7 whole entry S696N/L932S/Q995L/T998S/S1033A/Q1183K, the tested form may be a part): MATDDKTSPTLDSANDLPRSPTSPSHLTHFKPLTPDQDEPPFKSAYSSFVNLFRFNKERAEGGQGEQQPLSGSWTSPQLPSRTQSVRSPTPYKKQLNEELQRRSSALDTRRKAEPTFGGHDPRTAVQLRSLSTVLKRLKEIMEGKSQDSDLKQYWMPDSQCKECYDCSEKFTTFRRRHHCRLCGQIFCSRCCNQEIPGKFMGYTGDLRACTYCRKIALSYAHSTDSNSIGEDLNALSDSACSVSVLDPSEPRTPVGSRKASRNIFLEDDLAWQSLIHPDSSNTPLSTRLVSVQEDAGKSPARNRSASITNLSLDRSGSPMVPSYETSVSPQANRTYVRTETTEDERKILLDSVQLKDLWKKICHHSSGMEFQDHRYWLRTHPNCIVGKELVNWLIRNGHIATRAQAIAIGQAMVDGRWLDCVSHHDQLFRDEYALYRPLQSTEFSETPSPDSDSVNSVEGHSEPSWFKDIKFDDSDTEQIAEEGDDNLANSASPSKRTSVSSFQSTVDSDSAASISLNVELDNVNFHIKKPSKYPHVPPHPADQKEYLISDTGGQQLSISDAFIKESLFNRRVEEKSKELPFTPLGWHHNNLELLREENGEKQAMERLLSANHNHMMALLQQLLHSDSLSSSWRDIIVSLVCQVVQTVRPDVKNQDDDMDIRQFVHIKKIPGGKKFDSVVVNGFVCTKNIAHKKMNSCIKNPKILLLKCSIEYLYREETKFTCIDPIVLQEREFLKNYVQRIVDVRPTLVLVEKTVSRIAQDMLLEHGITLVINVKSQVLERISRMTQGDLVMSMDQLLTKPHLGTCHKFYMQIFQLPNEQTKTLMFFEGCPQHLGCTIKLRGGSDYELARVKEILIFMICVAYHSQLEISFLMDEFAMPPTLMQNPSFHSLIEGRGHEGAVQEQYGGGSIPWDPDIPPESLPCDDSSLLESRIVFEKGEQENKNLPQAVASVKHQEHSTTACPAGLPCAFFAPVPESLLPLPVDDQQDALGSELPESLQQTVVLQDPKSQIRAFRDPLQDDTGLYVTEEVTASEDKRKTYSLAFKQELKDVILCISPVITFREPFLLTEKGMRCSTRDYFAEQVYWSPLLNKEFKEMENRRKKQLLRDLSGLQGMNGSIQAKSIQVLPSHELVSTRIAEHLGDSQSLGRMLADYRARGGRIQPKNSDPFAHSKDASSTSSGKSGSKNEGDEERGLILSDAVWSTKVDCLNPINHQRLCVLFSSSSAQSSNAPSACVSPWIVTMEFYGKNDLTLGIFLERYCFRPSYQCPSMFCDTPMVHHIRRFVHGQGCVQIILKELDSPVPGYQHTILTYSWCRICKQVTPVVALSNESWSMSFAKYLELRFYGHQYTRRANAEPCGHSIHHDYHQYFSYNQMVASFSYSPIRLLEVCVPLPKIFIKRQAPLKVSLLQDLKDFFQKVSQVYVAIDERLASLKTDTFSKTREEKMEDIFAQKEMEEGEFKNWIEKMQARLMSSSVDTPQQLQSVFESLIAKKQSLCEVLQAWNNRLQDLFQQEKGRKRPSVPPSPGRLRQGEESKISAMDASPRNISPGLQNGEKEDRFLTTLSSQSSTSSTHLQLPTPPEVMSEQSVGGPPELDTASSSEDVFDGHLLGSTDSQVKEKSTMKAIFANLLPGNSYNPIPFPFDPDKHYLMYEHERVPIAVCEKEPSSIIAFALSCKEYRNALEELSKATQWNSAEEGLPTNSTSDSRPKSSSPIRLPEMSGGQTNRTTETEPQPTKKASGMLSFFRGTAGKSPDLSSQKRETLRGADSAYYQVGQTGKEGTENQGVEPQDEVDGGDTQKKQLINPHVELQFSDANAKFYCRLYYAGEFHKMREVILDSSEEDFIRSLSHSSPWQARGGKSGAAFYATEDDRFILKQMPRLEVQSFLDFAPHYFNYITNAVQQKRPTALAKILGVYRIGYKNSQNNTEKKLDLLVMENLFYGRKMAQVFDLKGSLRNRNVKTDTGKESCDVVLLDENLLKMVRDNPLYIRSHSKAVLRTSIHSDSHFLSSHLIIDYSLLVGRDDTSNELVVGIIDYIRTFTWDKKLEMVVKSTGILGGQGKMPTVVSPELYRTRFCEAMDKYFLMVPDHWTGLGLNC

In the test the target is full-length human PIKFYVE (N-terminal GST-fusion) (Homo sapiens (Human), UniProt Q9Y2I7, L932S/Q1183K/Q995L/S1033A/S696N/T998S). In words: PIKfyve biochemical assay (ADP-Glo Kinase assay, Carna Biosciences). The note with it: ADP-Glo, full-length human GST-PIKFYVE, 10 μM to 3 nM; read-out: hPIKfyve IC50. In outline:
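Baculovirus-expressed, glutathione-purified GST-tagged full-length human PIKFYVE (S696N/L932S/Q995L/T998S/S1033A/Q1183K) reacted with substrate and ATP in 50 mM MOPS, 1 mM DTT, pH 7.2, 1 h at room temperature. ADP formed read by ADP-Glo luminescence.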
One may read the IC50 as the concentration that gives 50% inhibition. As for `c1cncc(N2CCc3c(N4Cc5ccccc5C4)nc(N4CCOCC4)nc32)c1` [Compound 80, 4-(4-(isoindolin-2-yl)-7-(pyridin-3-yl)-6,7-dihydro-5H-pyrrolo[2,3-d]pyrimidin-2-yl)morpholine], the IC50 fell in the range of 10 to 100 nM.

Take `CN1CCN(c2nc(N3CCOCC3)nc3c2CCN3c2cccnc2)CC1` [Compound 81, 4-(4-(4-methylpiperazin-1-yl)-7-(pyridin-3-yl)-6,7-dihydro-5H-pyrrolo[2,3-d]pyrimidin-2-yl)morpholine]: the IC50 is 1000 to 10000 nM.

With `Cc1cccc(/C=N/Nc2nc(N3CCOCC3)nc3c2CCN3c2cccnc2)c1` [Compound 82, (E)-4-(4-(2-(3-methylbenzylidene)hydrazineyl)-7-(pyridin-3-yl)-6,7-dihydro-6H-pyrrolo[2,3-d]pyrimidin-2-yl)morpholine], the concentration for half-maximal inhibition (IC50) is less than 10 nM.

Take `Cc1cccc(-c2ccn(-c3nc(N4CCOCC4)nc4c3CCN4c3cccnc3)n2)c1` [Compound 83, 4-(7-(pyridin-3-yl)-4-(3-(m-tolyl)-1H-pyrazol-1-yl)-6,7-dihydro-6H-pyrrolo[2,3-d]pyrimidin-2-yl)morpholine]: the IC50 lay in the range of 10 to 100 nM.

Regarding `c1ccc(-c2ccn(-c3nc(N4CCOCC4)nc4c3CCN4c3ccncc3)n2)cc1` [Compound 84, 4-(4-(3-phenyl-1H-pyrazol-1-yl)-7-(pyridin-4-yl)-6,7-dihydro-6H-pyrrolo[2,3-d]pyrimidin-2-yl)morpholine], the IC50 lay in the range of 10 to 100 nM.

As for `COc1cccc(C#Cc2nc(N3CCOCC3)nc3c2CCN3c2cccnc2)c1` [Compound 85, 4-(4-((3-methoxyphenyl)ethynyl)-7-(pyridin-3-yl)-6,7-dihydro-5H-pyrrolo[2,3-d]pyrimidin-2-yl)morpholine], the IC50 was 100 to 1000 nM.

`c1ccc(N2CCc3c(C4CCOCC4)nc(N4CCOCC4)nc32)cc1` [Compound 86, 4-(7-phenyl-4-(tetrahydro-2H-pyran-4-yl)-6,7-dihydro-5H-pyrrolo[2,3-d]pyrimidin-2-yl)morpholine]: the concentration for half-maximal inhibition (IC50) lay in the range of 100 to 1000 nM.

Turning to `c1ccc(N2CCc3c(C4CCOC4)nc(N4CCOCC4)nc32)cc1` (stereo not drawn) [Compound 87, 4-(7-phenyl-4-(tetrahydrofuran-3-yl)-6,7-dihydro-5H-pyrrolo[2,3-d]pyrimidin-2-yl)morpholine], the IC50 was in the range of 10 to 100 nM.

With `c1cncc(N2CCc3c(-c4ccoc4)nc(N4CCOCC4)nc32)c1` [Compound 88, 4-(4-(furan-3-yl)-7-(pyridin-3-yl)-6,7-dihydro-6H-pyrrolo[2,3-d]pyrimidin-2-yl)morpholine], the IC50 fell in the range of 10 to 100 nM.

`c1cncc(N2CCc3c(C4CCOC4)nc(N4CCOCC4)nc32)c1` (stereo not drawn) [Compound 89, 4-(7-(pyridin-3-yl)-4-(tetrahydrofuran-3-yl)-6,7-dihydro-6H-pyrrolo[2,3-d]pyrimidin-2-yl)morpholine]: the IC50 was 100 to 1000 nM.

As to `c1ccc(N2CCc3c(-c4ccccn4)nc(N4CCOCC4)nc32)cc1` [Compound 90, 4-(7-phenyl-4-(pyridin-2-yl)-6,7-dihydro-5H-pyrrolo[2,3-d]pyrimidin-2-yl)morpholine], the IC50 was in the range of 100 to 1000 nM.

`c1ccc(N2CCc3c(-c4cccnc4)nc(N4CCOCC4)nc32)cc1` [Compound 91, 4-(7-phenyl-4-(pyridin-3-yl)-6,7-dihydro-5H-pyrrolo[2,3-d]pyrimidin-2-yl)morpholine]: the IC50 lay within 10 to 100 nM.

In the case of `c1ccc(N2CCc3c(-c4ccncc4)nc(N4CCOCC4)nc32)cc1` [Compound 92, 4-(7-phenyl-4-(pyridin-4-yl)-6,7-dihydro-5H-pyrrolo[2,3-d]pyrimidin-2-yl)morpholine], the IC50 is 10 to 100 nM.

Regarding `Fc1cccc(N2CCc3c(-c4ccoc4)nc(N4CCOCC4)nc32)c1` [Compound 93, 4-(7-(3-fluorophenyl)-4-(furan-3-yl)-6,7-dihydro-5H-pyrrolo[2,3-d]pyrimidin-2-yl)morpholine], the IC50 is 10 to 100 nM.

On to `Fc1cccc(N2CCc3c(C4CCOC4)nc(N4CCOCC4)nc32)c1` (stereo not drawn) [Compound 94, 4-(7-(3-fluorophenyl)-4-(tetrahydro-furan-3-yl)-6,7-dihydro-5H-pyrrolo[2,3-d]pyrimidin-2-yl)morpholine], for which the IC50 lay in the range of 100 to 1000 nM.

Take `c1cc(-c2nc(N3CCOCC3)nc3c2CCN3C2CCOCC2)ccn1` [Compound 95, 4-(4-(pyridin-4-yl)-7-(tetrahydro-2H-pyran-4-yl)-6,7-dihydro-5H-pyrrolo[2,3-d]pyrimidin-2-yl)morpholine]: the 50% inhibitory concentration (IC50) fell in the range of 100 to 1000 nM.

As to `c1cc(N2CCc3c(-c4ccoc4)nc(N4CCOCC4)nc32)cnn1` [Compound 96, 4-(4-(furan-3-yl)-7-(pyridazin-4-yl)-6,7-dihydro-5H-pyrrolo[2,3-d]pyrimidin-2-yl)morpholine], the IC50 was 10 to 100 nM.

For `c1cncc(N2CCc3c(-c4ccnnc4)nc(N4CCOCC4)nc32)c1` [Compound 97], the IC50 lay in the range of 10 to 100 nM.

On to `c1ccc(N2CCc3c(-c4ccnnc4)nc(N4CCOCC4)nc32)cc1` [Compound 99, 4-(7-phenyl-4-(pyridazin-4-yl)-6,7-dihydro-5H-pyrrolo[2,3-d]pyrimidin-2-yl)morpholine], for which the IC50 lay within 10 to 100 nM.

Consider `c1ccc(N2CCc3c(-c4cncnc4)nc(N4CCOCC4)nc32)cc1` [Compound 100, 4-(7-phenyl-4-(pyrimidin-5-yl)-6,7-dihydro-5H-pyrrolo[2,3-d]pyrimidin-2-yl)morpholine], for which the IC50 lay within 10 to 100 nM.

On to `c1ccc(N2CCc3c(-c4cnco4)nc(N4CCOCC4)nc32)cc1` [Compound 101, 4-(4-(oxazol-5-yl)-7-phenyl-6,7-dihydro-5H-pyrrolo[2,3-d]pyrimidin-2-yl)morpholine], for which the IC50 fell in the range of 10 to 100 nM.

For `c1cncc(-c2nc(N3CCOCC3)nc3c2CCN3c2ccc3c(c2)OCO3)c1` [Compound 102, 4-(7-(benzo[d][1,3]dioxol-5-yl)-4-(pyridin-3-yl)-6,7-dihydro-5H-pyrrolo[2,3-d]pyrimidin-2-yl)morpholine], the IC50 lay within 10 to 100 nM.

Consider `c1cncc(-c2nc(N3CCOCC3)nc3c2CCN3c2ccc3c(c2)OCCO3)c1` [Compound 103, 4-(7-(2,3-dihydrobenzo[b][1,4]dioxin-6-yl)-4-(pyridin-3-yl)-6,7-dihydro-5H-pyrrolo[2,3-d]pyrimidin-2-yl)morpholine], for which the IC50 is less than 10 nM.

With `Fc1cccc(N2CCc3c(-c4ccncc4)nc(N4CCOCC4)nc32)c1` [Compound 104, 4-(7-(3-fluorophenyl)-4-(pyridin-4-yl)-6,7-dihydro-5H-pyrroolo[2,3-d]pyrimidin-2-yl)morpholine], the IC50 is less than 10 nM.

On to `c1cncc(N2CCc3c(-c4ccncc4)nc(N4CCOCC4)nc32)c1` [Compound 105, 4-(7-(pyridin-3-yl)-4-(pyridin-4-yl)-6,7-dihydro-5H-pyrrolo[2,3-d]pyrimidin-2-yl)morpholine], for which the IC50 lay within 10 to 100 nM.

Turning to `c1cncc(-c2nc(N3CCOCC3)nc3c2CCN3c2cccnc2)c1` [Compound 106, 4-(4,7-di(pyridin-3-yl)-6,7-dihydro-5H-pyrrolo[2,3-d]pyrimidin-2-yl)morpholine], the IC50 lay in the range of 10 to 100 nM.

Take `CC(C)(C)OC(=O)N1CCC(c2nc(N3CCOCC3)nc3c2CCN3c2cccnc2)CC1` [Compound 107, tert-butyl 4-(2-morpholino-7-(pyridin-3-yl)-6,7-dihydro-5H-pyrrolo[2,3-d]pyrimidin-4-yl)piperidine-1-carboxylate]: the IC50 is 100 to 1000 nM.

(Values after patent US20250145642A1, “BICYCLIC HETEROARENES AND METHODS OF THEIR USE” (Kineta, Inc., priority 2021, published 2025).)
